The values that follow come from EPA's ToxValDB 9.5 (doi:10.2903/j.efsa.2014.3873).

In brackets after ≈: the same amount, converted by molar mass.

For one data set, the system named is Bibionidae. The conditions noted are these: chronic/long-term; duration: 28 days; other.
Another data set concerns Daphnia magna. The note with it: chronic/long-term, duration: 21 days.
A further data set concerns Rattus norvegicus. The note with it: for NOAEL: clinical signs.
The test system of a further data set is Apis mellifera. The conditions noted are these: acute; dermal; mortality.
A further data set deals with Adalia sp. Put plainly: LR50; higher = less toxic. The note with it: acute; duration: 48 hours; mortality.

Take `CC(C)[C@H](C(=O)O[C@H](C#N)c1cccc(Oc2ccccc2)c1)c1ccc(Cl)cc1` [Esfenvalerate]: the NOEC in the data set on Bibionidae came to 0.16 µg/L; in the data set on Oncorhynchus mykiss (chronic/long-term, duration: 21 days), 0.001 µg/L; with Daphnia magna it was 0.052 µg/L; in the data set with Daphnia magna (reproduction) it was 0.0038 µg/L; with Colinus virginianus (reproduction developmental), 18.7 mg/kg-day; with Tagia sp. (chronic/long-term), 1.1 mg/kg. In addition, the LC50 came out at 0.1 ng/mL (≈ 0.238 nM) in the data set with Oncorhynchus mykiss (acute, duration: 96 hours, mortality) and 10.6 mg/kg with Tagia sp. (acute, mortality). For the same compound, the LD50 with Colinus virginianus (acute, oral, mortality) was found to be 1310 mg/kg-day; with Rattus norvegicus (acute, oral, mortality), 88.5 mg/kg; in the data set with Apis mellifera it was 0.06 µg/piece. The NOAEL in the data set with Rattus norvegicus (acute) and in the data set on Rattus norvegicus (chronic) was 1.75 mg/kg-day in each case. Moreover, the LR50 in the data set on Adalia sp. is 0.291 g/ha.
